The values that follow come from publication doi:10.1101/2022.07.11.499659v1 (bioRxiv, 2022).

Assay [1] has as its target T1, α-Synuclein (αS) aggregation (Homo sapiens, UniProt P37840). The experiment in a line: Spin-down assay / SDS-PAGE of soluble and insoluble αS fractions. The format is biochemical. As to conditions: 100 μM αS aggregated four days, indicated molar ratios.
Assay [2] concerns UA196 worms (human αS and GFP in DA neurons). The assay can be described thus: Confocal count of healthy DA neurons in UA196 worms, early treatment. The format is in vivo, C. elegans. The following applies: UA196, 50 μM on day two.
Assay [3] has as its target T1, α-Synuclein (αS) aggregation. The experiment in a line: Thioflavin T. The format is biochemical. As to conditions: 100 μM αS in 1 × PBS, ligand at equimolar ratio, four days.
The next assay deals with αS (Homo sapiens, UniProt P37840). The experiment in a line: 2D HSQC. The format is binding. As to conditions: 70 μM 15N αS, NS132 equimolar.
The test system of assay [4] is NL5901 worms (αS-YFP in body wall muscle cells). The experiment in a line: Confocal count of αS-YFP inclusions in NL5901 worms. The format is in vivo, C. elegans. As to conditions: NL5901, 50 μM on day two.

Consider `Cc1ccc(NC(=O)c2ccc(NC(=O)c3ccc([N+](=O)[O-])c(NCCc4c[nH]c5ccccc45)n3)c(NCC3CCCCC3)n2)c(OCC(=O)OC(C)(C)C)n1` [NS132-P], for which the “Antagonist activity by SDS-PAGE analysis” value in assay [1] is reported as “poor antagonist of αS aggregation”.

Take `Cc1ccc(NC(=O)c2ccc(NC(=O)c3ccc([N+](=O)[O-])c(NCCc4c[nH]c5ccccc45)n3)c(NCC3CCCCC3)n2)c(OCC(=O)O)n1` [NS132]: the “neuroprotective effect on degeneration of DA neurons” value in assay [2] was “very good neuroprotective effect”. For the same compound, the “Effect on αS aggregation, ThT assay” value in assay [3] is recorded as “most potent antagonist”. The “binding site of NS132 on αS (residues with changed amide peaks)” value at αS is “residues 10-20, 36-43, and 50,55,59”. In assay [4], the “number of inclusions” value is listed as “decrease in the number of inclusions”.

Consider `Cc1ccc(NC(=O)c2ccc(NC(=O)c3ccc([N+](=O)[O-])c(NCCc4c[nH]c5ccccc45)n3)c(NCC3CCCCC3)n2)c(OCC(=O)NO)n1` [NS163], for which the “neuroprotective effect on degeneration of DA neurons” value in assay [2] is on record as “remarkable neuroprotective effect”. Moreover, in assay [2] (up to 15 days), the “% loss of the total number of DA neurons” value is below 5%. Further, in assay [3], the “Effect on αS aggregation, ThT assay” value is reported as “potent antagonist of αS aggregation”.
